Experiments:
barnyardgrass (Ec) [1] = assay: Test Example 1: herbicidal effects by paddy field soil treatment; type: in vivo; conditions: 100 g of the active ingredient per 10 ares, 21st day after the application, index 0-5 of Table 47;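 note: grade of growth control; 5 = at least 90%; 4 = 70 to 90%; 3 = 50 to 70%; 2 = 30 to 50%; 1 = 10 to 30%; 0 = under 10%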
Procedure, shortened: (§1)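 Flooded paddy-soil pots (3 cm water) sown after puddling/leveling; treatment 100 g a.i./10 ares; greenhouse culture; herbicidal effect rated visually on a scoring scale at 21 d post-application.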

bulrush (Sc) = assay: as above; type: in vivo; conditions: 100 g of the active ingredient per 10 ares, 21st day after the application, index 0-5 of Table 47;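 note: grade of growth control; 5 = at least 90%; 4 = 70 to 90%; 3 = 50 to 70%; 2 = 30 to 50%; 1 = 10 to 30%; 0 = under 10%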
Procedure, shortened: as §1

monochoria (Mo) = assay: as above; type: in vivo; conditions: 100 g of the active ingredient per 10 ares, 21st day after the application, index 0-5 of Table 47;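 note: grade of growth control; 5 = at least 90%; 4 = 70 to 90%; 3 = 50 to 70%; 2 = 30 to 50%; 1 = 10 to 30%; 0 = under 10%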
Procedure, shortened: as §1

Digitaria ciliaris (Di) = assay: Test Example 2: herbicidal effects by upland field soil treatment; type: in vivo; conditions: 100 g of the active ingredient per 10 ares, evaluated on the 21st day after application;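 note: grade of growth control; 5 = at least 90%; 4 = 70 to 90%; 3 = 50 to 70%; 2 = 30 to 50%; 1 = 10 to 30%; 0 = under 10%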
Text: (§2) (Test on Herbicidal Effects by Upland Field Soil Treatment)

barnyardgrass (Ec) [2] = assay: as above; type: in vivo; conditions: 100 g of the active ingredient per 10 ares, evaluated on the 21st day after application
Text: as §2

[3] = test system: common lambsquarters (Ch); assay: as above; type: in vivo; conditions: 100 g of the active ingredient per 10 ares, evaluated on the 21st day after application
Text: as §2

pale smartweed (Po) [4] = assay: as above; type: in vivo; conditions: 100 g of the active ingredient per 10 ares, evaluated on the 21st day after application
Text: as §2

rice flatsedge (Ci) [5] = assay: as above; type: in vivo; conditions: 100 g of the active ingredient per 10 ares, evaluated on the 21st day after application
Text: as §2

slender amaranth (Am) [6] = assay: as above; type: in vivo; conditions: 100 g of the active ingredient per 10 ares, evaluated on the 21st day after application
Text: as §2

Diaitaria ciliaris (Di) = assay: Test Example 3: herbicidal effects by upland field foliage treatment; type: in vivo; design: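 grade of growth control; 5 = at least 90%; 4 = 70 to 90%; 3 = 50 to 70%; 2 = 30 to 50%; 1 = 10 to 30%; 0 = under 10%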; conditions: 100 g active ingredient per 10 ares, evaluated 14th day after treatment
Procedure, shortened: (§3)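 Two-week-old greenhouse seedlings, raised in sand-filled pots (120 cm^2) with seed covered by soil, receive a foliar application. Effects are then evaluated by standard grades 14 days later, plants remaining in the greenhouse meanwhile.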

barnyardgrass (Ec) [7] = assay: as above; type: in vivo; design: scale not given here; conditions: 100 g active ingredient per 10 ares, evaluated 14th day after treatment
Procedure, shortened: as §3

[8] = test system: common lambsquarters (Ch); assay: as above; type: in vivo; design: scale not given here; conditions: 100 g active ingredient per 10 ares, evaluated 14th day after treatment
Procedure, shortened: as §3

pale smartweed (Po) [9] = assay: as above; type: in vivo; design: scale not given here; conditions: 100 g active ingredient per 10 ares, evaluated 14th day after treatment
Procedure, shortened: as §3

rice flatsedge (Ci) [10] = assay: as above; type: in vivo; design: scale not given here; conditions: 100 g active ingredient per 10 ares, evaluated 14th day after treatment
Procedure, shortened: as §3

slender amaranth (Am) [11] = assay: as above; type: in vivo; design: scale not given here; conditions: 100 g active ingredient per 10 ares, evaluated 14th day after treatment
Procedure, shortened: as §3

wheat (Tr) = assay: Test Example 9: crop plant selectivity by upland field foliage treatment (wheat), phytotoxicity; conditions: dose 1.6 g ai/10a, 14th day after treatment
Procedure, shortened: (§4)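 Sand-filled pot, wheat + weeds co-sown; greenhouse 2 wk, then foliage treatment; greenhouse culture continued; visual scoring of weed control and crop injury at 14 d post-treatment per grading scale.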

China jute (Ab) [12] = assay: Test Example 9: crop plant selectivity by upland field foliage treatment (wheat), herbicidal effects; type: in vivo; design: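 grade of growth control; 5 = at least 90%; 4 = 70 to 90%; 3 = 50 to 70%; 2 = 30 to 50%; 1 = 10 to 30%; 0 = under 10%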; conditions: dose 1.6 g ai/10a, 14th day after treatment
Procedure, shortened: as §4

[13] = test system: common lambsquarters (Ch); assay: as above; type: in vivo; design: scale not given here; conditions: dose 1.6 g ai/10a, 14th day after treatment
Procedure, shortened: as §4

pale smartweed (Po) [14] = assay: as above; type: in vivo; design: scale not given here; conditions: dose 1.6 g ai/10a, 14th day after treatment
Procedure, shortened: as §4

slender amaranth (Am) [15] = assay: as above; type: in vivo; design: scale not given here; conditions: dose 1.6 g ai/10a, 14th day after treatment
Procedure, shortened: as §4

soybean (Gl) = assay: Test Example 10: crop plant selectivity by upland field foliage treatment (soybean), phytotoxicity; conditions: dose 1.6 g ai/10a, 14th day after treatment
Procedure: (§5) (Test on Crop Plant Selectivity by Upland Field Foliage Treatment)
(§6) In a plastic pot (surface area: 600 cm^2) filled with sand, soybean (Gl), pale smartweed (Po), slender amaranth (Am), common lambsquarters (Ch) and China jute (Ab) were sown and cultured in a green house for 2 weeks. […] The plants were then cultured in a green house, and the evaluation of the herbicidal effects and phytotoxicity was conducted on the 14th day after the treatment in accordance with the standards as identified in Table 47.

China jute (Ab) [16] = assay: Test Example 10: crop plant selectivity by upland field foliage treatment (soybean), herbicidal effects; type: in vivo; conditions: dose 1.6 g ai/10a, 14th day after treatment
Procedure: as §5, §6

[17] = test system: common lambsquarters (Ch); assay: as above; type: in vivo; conditions: dose 1.6 g ai/10a, 14th day after treatment
Procedure: as §5, §6

pale smartweed (Po) [18] = assay: as above; type: in vivo; conditions: dose 1.6 g ai/10a, 14th day after treatment
Procedure: as §5, §6

slender amaranth (Am) [19] = assay: as above; type: in vivo; conditions: dose 1.6 g ai/10a, 14th day after treatment
Procedure: as §5, §6

corn (Ze) = assay: Test Example 11: crop plant selectivity by upland field foliage treatment (corn), phytotoxicity; conditions: upland field foliage treatment, dose 1.6 g ai/10a, 14th day after treatment
Procedure, shortened: (§7)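 Corn and the weed species were sown together in sand-filled pots and grown in a greenhouse for 2 weeks before foliar treatment. Herbicidal effect was scored on day 14 after treatment against a graded standard scale, with corn phytotoxicity scored alongside.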

China jute (Ab) [20] = assay: Test Example 11: crop plant selectivity by upland field foliage treatment (corn), herbicidal effects; type: in vivo; design: scale not given here; conditions: upland field foliage treatment (corn test), dose 1.6 g ai/10a, 14th day after treatment
Procedure, shortened: as §7

[21] = test system: common lambsquarters (Ch); assay: as above; type: in vivo; design: scale not given here; conditions: upland field foliage treatment (corn test), dose 1.6 g ai/10a, 14th day after treatment
Procedure, shortened: as §7

pale smartweed (Po) [22] = assay: as above; type: in vivo; design: scale not given here; conditions: upland field foliage treatment (corn test), dose 1.6 g ai/10a, 14th day after treatment
Procedure, shortened: as §7

slender amaranth (Am) [23] = assay: as above; type: in vivo; design: scale not given here; conditions: upland field foliage treatment (corn test), dose 1.6 g ai/10a, 14th day after treatment
Procedure, shortened: as §7

Compound | Herbicidal effects Ec (barnyardgrass (Ec) [1]) | Herbicidal effects Sc (bulrush (Sc)) | Herbicidal effects Mo (monochoria (Mo)) | Herbicidal effects Di (Digitaria ciliaris (Di)) | Herbicidal effects Ec (barnyardgrass (Ec) [2]) | Herbicidal effects Ch [3] | Herbicidal effects Po (pale smartweed (Po) [4]) | Herbicidal effects Ci (rice flatsedge (Ci) [5]) | Herbicidal effects Am (slender amaranth (Am) [6]) | Herbicidal effects Di (Diaitaria ciliaris (Di)) | Herbicidal effects Ec (barnyardgrass (Ec) [7]) | Herbicidal effects Ch [8] | Herbicidal effects Po (pale smartweed (Po) [9]) | Herbicidal effects Ci (rice flatsedge (Ci) [10]) | Herbicidal effects Am (slender amaranth (Am) [11]) | Phytotoxicity Tr (wheat (Tr)) | Herbicidal effects Ab (China jute (Ab) [12]) | Herbicidal effects Ch [13] | Herbicidal effects Po (pale smartweed (Po) [14]) | Herbicidal effects Am (slender amaranth (Am) [15]) | further results
Cn1c(C(F)(F)F)ccc(-c2cc(C(=O)OC3CCCC3)c(Cl)cc2F)c1=O [Compound 1-184] | 5 | 5 | 5 | 5 | 5 | 5 | 5 | 5 | 5 | 5 | 5 | 5 | 5 | 5 | 5 | 2 | 5 | 5 | 5 | 5 | Phytotoxicity Gl (soybean (Gl)): 2; Herbicidal effects Ab (China jute (Ab) [16]): 5; Herbicidal effects Ch [17]: 5; Herbicidal effects Po (pale smartweed (Po) [18]): 5; Herbicidal effects Am (slender amaranth (Am) [19]): 5; Phytotoxicity Ze (corn (Ze)): 1; Herbicidal effects Ab (China jute (Ab) [20]): 5; Herbicidal effects Ch [21]: 5; Herbicidal effects Po (pale smartweed (Po) [22]): 5; Herbicidal effects Am (slender amaranth (Am) [23]): 5
CCCOCc1cc2c(-c3ccc(C(F)(F)F)n(C)c3=O)c(F)cc(Cl)c2o1 [Compound 4-32] | 5 | 5 | 5 | 5 | 5 | 5 | 5 | 5 | 5 | 5 | 5 | 5 | 5 | 5 | 5 | 2 | 5 | 5 | 5 | 5 | Phytotoxicity Gl (soybean (Gl)): 2; Herbicidal effects Ab (China jute (Ab) [16]): 5; Herbicidal effects Ch [17]: 5; Herbicidal effects Po (pale smartweed (Po) [18]): 5; Herbicidal effects Am (slender amaranth (Am) [19]): 5; Phytotoxicity Ze (corn (Ze)): 2; Herbicidal effects Ab (China jute (Ab) [20]): 5; Herbicidal effects Ch [21]: 5; Herbicidal effects Po (pale smartweed (Po) [22]): 5; Herbicidal effects Am (slender amaranth (Am) [23]): 5
C#CCOCc1cc(-c2ccc(C(F)(F)F)n(C)c2=O)c(F)cc1Cl [Compound No. 1-199, 3-(4-chloro-2-fluoro-5-propargyloxymethylphenyl)-1-methyl-6-trifluoromethyl-2(1H)-pyridone] | 5 | 5 | 5 | 5 | 5 | 5 | 5 | 5 | 5 | 5 | 4 | 5 | 5 | 5 | 5 | 2 | 5 | 5 | 5 | 5 | Phytotoxicity Gl (soybean (Gl)): 2; Herbicidal effects Ab (China jute (Ab) [16]): 5; Herbicidal effects Ch [17]: 5; Herbicidal effects Po (pale smartweed (Po) [18]): 5; Herbicidal effects Am (slender amaranth (Am) [19]): 5; Phytotoxicity Ze (corn (Ze)): 2; Herbicidal effects Ab (China jute (Ab) [20]): 5; Herbicidal effects Ch [21]: 5; Herbicidal effects Po (pale smartweed (Po) [22]): 5; Herbicidal effects Am (slender amaranth (Am) [23]): 5; melting point: 99 to 101 °C

Reference: patent US6472348B1, “Pyridone derivatives and herbicides” (Kumiai Chemical Industry Co., Ltd., priority 1996, dated 2002)
